# Laboratory results from publication PMC9569450, “Dual Effect of Tryptamine on Prostate Cancer Cell Growth Regulation: A Pilot Study” (International Journal of Molecular Sciences, 2022).
# Experiments:
# [1] = system: PANC-1 cells; assay: Transwell migration assay, PANC-1; type: cell-based; details: 24 h
# Method: (§1) Cell migration was evaluated using 8-μm transwell filters (Costar Corning, Schiphol-Rijk, The Netherlands). Cells at a density of 5 × 10^4 were seeded to the upper chamber, and the chamber was filled with FBS-free medium. Cells were incubated overnight to allow for adherence; then, the lower chamber was replaced with 10% FBS medium as a chemo-attractant. Following a 24 h incubation, non-migrating cells on the upper surface of the insert membrane were gently removed by cotton swabs and migrated cells on the lower surface of the insert membrane were fixed by 4% paraformaldehyde and stained with 0.1% crystal violet for 20 min. Migrated cells on each membrane were photographed and counted at 100× magnification field at six random fields.
# [2] = system: A549 cells; assay: Transwell migration assay, A549; type: cell-based; details: 24 h
# Method: as §1
# [3] = system: HepG2 cells; assay: Transwell migration assay, HepG2; type: cell-based; details: 24 h
# Method: as §1
# [4] = system: PC-3 xenograft tumors; assay: PC-3 xenograft mouse model; type: in vivo
# Method: Five-week-old male BALB/c nude mice were purchased from Charles River Laboratories (Beijing, China) and raised in a temperature and humidity-controlled environment (25 ± 2 °C, 50% ± 10% humidity) with a standard 12 h light-dark cycle with food and water in cages under germ-free conditions (SCXK2021-0006). All procedures involving animals and their care were approved by the Institutional Animal Care and Use Committee of the Ocean University of China in accordance with institutional and National Institutes of Health guidelines (OUC-SMP-2022-01-01). PC-3 cells (4 × 10^6 dissolved in 150 μL PBS) were injected subcutaneously into the armpit area of each mouse. For the first treatment group, when tumors reached 50 mm^3, 80 mg/kg of tryptamine dissolved in normal saline with 0.1% formic acid was administered intraperitoneally once every other day for 32 days (n = 6). […] The control groups were administrated with the vehicle. The tumor volume (mm^3) was calculated based on the formula:(2) Tumor volume (mm^3)=length×width^2/2
# [5] = UPLC-HRMS detection of tryptamine in serum or tissue samples of xenograft mice; type: in vivo, BALB/c nude mice
# Method: However, intraperitoneal injection of tryptamine promoted the growth of PC-3 xenograft tumors in nude mice. […] Additionally, it has been reported that the intraperitoneal injections of 10 mg/kg 5-HT increased tumor weight by almost 60% using an orthotopic mouse model of ovarian cancer. As is known, both 5-HT and tryptamine in the blood can be taken up and carried by platelets and released during degranulation, and also various tryptamine-related compounds are substrates of the platelet 5-HT transporter. Thus, the tumor growth promoting effect of intraperitoneal treatment of tryptamine in our study might be similar to the effect of 5-HT, which has long been thought to be related to tumor progression.
compound,measurement,setting,value
NCCc1c[nH]c2ccccc12 [Tryptamine],migrated cells reduced by,"[1]; PANC-1, 0.075 mM",43%
same,percentage of migrated cells,"[1]; PANC-1, 0.15 mM",45%
same,percentage of migrated cells,"[1]; PANC-1, 0.3 mM",27%
same,migrated cells compared with the control,"[2]; A549, 0.075 mM",no significant difference
same,percentage of migrated cells,"[2]; A549, 0.15 mM",80%
same,percentage of migrated cells,"[2]; A549, 0.3 mM",63%
same,migrated cells compared with the control,"[3]; HepG2, 0.075 mM",no significant difference
same,percentage of migrated cells,"[3]; HepG2, 0.15 mM",77%
same,percentage of migrated cells,"[3]; HepG2, 0.3 mM",55%
same,tumor volume and weight compared with the control group,"[4]; intraperitoneal, 80 mg/kg once every other day for 32 days",increased tumor volume and weight
same,adverse effects or toxicity in the liver,"[4]; intratumoral, 1 mg/100 mm^3",without obvious signs of adverse effects or toxicity in the liver
same,"tumor growth, tumor volume and weight","[4]; intratumoral, 1 mg/100 mm^3 every day for 16 days",significant tumor growth delay
same,tryptamine in serum or tissue samples,[5]; intraperitoneal treatment group,not detected
same,tryptamine in tissue samples,[5]; intratumoral treatment group,apparent peak
